Measured values reported in patent publication US8178552B2, “7-Azaindole derivatives and their use in the inhibition of c-Jun N-terminal kinase” (Eisai R&D Management Co., Ltd., priority 2008, dated 2012).

Tests used:
JNK3 = JNK3 (Homo sapiens, UniProt P53779); assay: JNK3 SPA assay; assay type: biochemical; conditions: 3.33 μM ATP, GST-c-Jun substrate; read-out: IC50 against JNK3
How it was run: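 Radiometric SPA using GST-c-Jun with [γ-33P]ATP in 25 mM HEPES pH 7.5 and 10 mM Mg acetate; the substrate solution held 3.33 µM ATP (JNK2/3) or 2 µM ATP (JNK1). Reactions ran 30 min at room temperature and were stopped with glutathione SPA beads plus 40 mM ATP. IC50 is the concentration halving c-Jun phosphorylation versus control.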

c-Jun phosphorylation = assay: LPS-induced c-Jun phosphorylation in spleen of mice (HTRF); assay type: in vivo, male C57/B16 mice; conditions: Mus musculus, po; 20 mg/kg p.o. 30 min before LPS 10 mg/kg i.p.; 1 hour after LPS; versus vehicle-treated animals; read-out: Percentage reduction in the level of P-c-Jun in spleen
Procedure: (§1) The studies were carried out in male C57/B16 mice. Compounds (20 mg/kg; p.o.) were administered 30 minutes before injection of lipopolysaccharide (LPS). LPS was administered intraperitoneally at a dose of 10 mg/kg. Animals were sacrificed 1 hour following LPS injection. Blood was collected into heparinized tubes for measurement of plasma TNFα levels and spleens were collected for the measurement of c-Jun phosphorylation. Plasma TNFα was measured using an ELISA kit purchased from R&D systems. Spleens were homogenised, extracted in high salt (250 mM NaCl) lysis buffer with phosphatase inhibitors and c-Jun phosphorylation was measured using HTRF. The suppressive effect of compounds was calculated as the percentage reduction of the TNFα level in plasma and P-c-Jun level in spleen as compared with the vehicle-treated animals.

TNFα = assay: LPS-induced TNFα suppression in mice (plasma TNFα, ELISA); assay type: in vivo, male C57/B16 mice; conditions: Mus musculus, po; 20 mg/kg p.o. 30 min before LPS 10 mg/kg i.p.; 1 hour after LPS; versus vehicle-treated animals; read-out: Percentage reduction in the level of TNFα in plasma
Procedure: as §1

panel of 100 kinases = assay: Selectivity against a panel of 100 kinases (Upstate/Millipore), expressed as Gini coefficient; assay type: biochemical; conditions: calculated from remaining activity at 1 micromolar compound, 10 micromolar ATP, 0 = non-selective, 1 = perfect selectivity
Procedure: Inhibitory potency of compounds (I) at a concentration of 1 micromolar and with ATP concentration of 10 micromolar was determined at Upstate/Millipore against a panel of 100 kinases representing all major families within the kinome. The results are presented in Table 3 and are expressed as percentage of remaining activity.
For comparison purposes Table 4 contains the relevant inhibitory data for reference compounds A-K containing a (hetero)aromatic ring at C(5) of the 7-azaindole system.
Selectivity of compounds according to the present invention and reference compounds expressed as Gini coefficient (J. Med. Chem. 2007, 50, 5773-5779) is shown in Table 5. The individual Gini coefficients have been calculated using the data in Tables 3 and 4. Value Gini=0 corresponds to a totally non-selective compound; value Gini=1 reflects perfect selectivity (inhibition of a single target only)

MOG (35-55)-induced EAE = assay: MOG (35-55)-induced experimental autoimmune encephalomyelitis (EAE) in mice; assay type: in vivo, C57/B16J mice; conditions: 20 mg/kg, p.o., once daily, from appearance of symptoms

Sequence of JNK3 (P53779 whole entry, species assumed): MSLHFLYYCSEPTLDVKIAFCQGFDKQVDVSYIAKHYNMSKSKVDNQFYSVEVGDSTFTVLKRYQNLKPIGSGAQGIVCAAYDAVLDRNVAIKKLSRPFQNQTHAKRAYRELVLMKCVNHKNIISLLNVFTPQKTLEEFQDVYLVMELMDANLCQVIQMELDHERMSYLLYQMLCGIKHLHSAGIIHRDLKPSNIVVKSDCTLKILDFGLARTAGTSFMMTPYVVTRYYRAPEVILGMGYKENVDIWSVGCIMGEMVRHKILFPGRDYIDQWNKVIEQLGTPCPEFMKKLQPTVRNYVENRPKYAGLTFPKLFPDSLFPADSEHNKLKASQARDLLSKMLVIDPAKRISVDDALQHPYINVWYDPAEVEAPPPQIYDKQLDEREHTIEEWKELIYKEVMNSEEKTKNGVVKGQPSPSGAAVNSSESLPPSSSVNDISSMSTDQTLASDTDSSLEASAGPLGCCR

Row | SMILES | IC50 (JNK3) [nM] | inhibition in vivo at 20 mg/kg (c-Jun phosphorylation) [%] | inhibition in vivo at 20 mg/kg (TNFα) [%] | Gini coefficient, reference compounds, aromatic C(5) group (panel of 100 kinases) | total white matter area in the lumbar spinal cord (MOG (35-55)-induced EAE; FIG. 10) | neuronal numbers in the ventral horn of the lumbar spinal cords (MOG (35-55)-induced EAE; FIG. 11) | demyelination in the lumbar spinal cord (MOG (35-55)-induced EAE; FIG. 12)
1 | CN1CCN([C@H]2CC[C@H](c3cnc4[nH]cc(-c5cnn(C)c5)c4c3)CC2)CC1 [Compound I-25, 3-(1-methyl-1H-pyrazol-4-yl)-5-((1r,4r)-4-(4-methylpiperazin-1-yl)cyclohexyl)-1H-pyrrolo[2,3-b]pyridine] | 90 | 25 | 80 |  |  |  | 
2 | CN(C)c1ccc(-c2cnc3[nH]cc(-c4cn[nH]c4)c3c2)cc1 [A] |  |  |  | 0.3368 |  |  | 
3 | CN1CCN([C@H]2CC[C@@H](c3cnc4[nH]cc(-c5cnn(C)c5)c4c3)CC2)CC1 [Compound I-26, 3-(1-methyl-1H-pyrazol-4-yl)-5-((1s,4s)-4-(4-methylpiperazin-1-yl)cyclohexyl)-1H-pyrrolo[2,3-b]pyridine] | 94 | 16 | 71 |  |  |  | 
4 | CC1CCC(c2cnc3[nH]cc(-c4cnn(C)c4)c3c2)CC1 (mixture of isomers) [Compound I-3, 3-(1-methyl-1H-pyrazol-4-yl)-5-(4-methylcyclohexyl)-1H-pyrrolo[2,3-b]pyridine] | 58 | 0 | 60 |  |  |  | 
5 | Cn1cc(-c2c[nH]c3ncc([C@H]4CC[C@H](N5CCCOCC5)CC4)cc23)cn1 [Compound I-40, 4-((1r,4r)-4-(3-(1-methyl-1H-pyrazol-4-yl)-1H-pyrrolo[2,3-b]pyridin-5-yl)cyclohexyl)-1,4-oxazepane] | 129 | 35 | 61 |  |  |  | 
6 | CN(C)C(=O)c1nc(-c2c[nH]c3ncc(-c4ccccc4)cc23)cs1 [G] |  |  |  | 0.3501 |  |  | 
7 | Cn1cc(-c2c[nH]c3ncc(C4CCCCC4)cc23)cn1 [Compound I-16, 5-cyclohexyl-3-(1-methyl-1H-pyrazol-4-yl)-1H-pyrrolo[2,3-b]pyridine] | 40 | 20 | 45 |  |  |  | 
8 | Cn1cc(-c2c[nH]c3ncc(C4=CCCC4)cc23)cn1 [Compound I-10, 5-cyclopentenyl-3-(1-methyl-1H-pyrazol-4-yl)-1H-pyrrolo[2,3-b]pyridine] | 17 | 75 | 62 |  |  |  | 
9 | Cn1cc(-c2c[nH]c3ncc([C@H]4CC[C@@H](N5CCCC5)CC4)cc23)cn1 [Compound I-23, 3-(1-methyl-1H-pyrazol-4-yl)-5-((1s,4s)-4-(pyrrolidin-1-yl)cyclohexyl)-1H-pyrrolo[2,3-b]pyridine] | 126 | 2 | 61 |  |  |  | 
10 | Cn1cc(-c2c[nH]c3ncc([C@H]4CC[C@@H](N5CCOCC5)CC4)cc23)cn1 [Compound I-7, 4-((1s,4s)-4-(3-(1-methyl-1H-pyrazol-4-yl)-1H-pyrrolo[2,3-b]pyridin-5-yl)cyclohexyl)morpholine] | 60 | 18 | 63 |  |  |  | 
11 | CN1CCCN([C@H]2CC[C@H](c3cnc4[nH]cc(-c5cnn(C)c5)c4c3)CC2)CC1 [Compound I-37, 5-((1r,4r)-4-(4-methyl-1,4-diazepan-1-yl)cyclohexyl)-3-(1-methyl-1H-pyrazol-4-yl)-1H-pyrrolo[2,3-b]pyridine] | 69 | -3 | 51 |  |  |  | 
12 | Cn1cc(-c2c[nH]c3ncc([C@H]4CC[C@H](N5CCOCC5)CC4)cc23)cn1 [Compound I-6, 4-((1r,4r)-4-(3-(1-methyl-1H-pyrazol-4-yl)-1H-pyrrolo[2,3-b]pyridin-5-yl)cyclohexyl)morpholine] | 80 | 41 | 82 |  | preservation | preservation | decrease
13 | CN1CCC(c2csc(-c3cnc4[nH]cc(-c5cnn(C)c5)c4c3)n2)CC1 [E] |  |  |  | 0.3757 |  |  | 
14 | Cn1cc(-c2c[nH]c3ncc([C@H]4CC[C@@H](N5CCCOCC5)CC4)cc23)cn1 [Compound I-39, 4-((1s,4s)-4-(3-(1-methyl-1H-pyrazol-4-yl)-1H-pyrrolo[2,3-b]pyridin-5-yl)cyclohexyl)-1,4-oxazepane] | 184 | 10 | 67 |  |  |  | 
15 | Cn1cc(-c2c[nH]c3ncc(C4CCC5(CC4)OCCO5)cc23)cn1 [Compound I-19, 5-(1,4-Dioxa-spiro[4.5]dec-8-yl)-3-(1-methyl-1H-pyrazol-4-yl)-1H-pyrrolo[2,3-b]pyridine] | 25 | 32 | 9 |  |  |  | 
16 | CN1CCN(C(=O)c2nc(-c3c[nH]c4ncc(-c5ccc(N6CCN(C)CC6)cc5)cc34)cs2)CC1 [J] |  |  |  | 0.3286 |  |  | 
17 | Cn1cc(-c2c[nH]c3ncc([C@H]4CC[C@H](N5CCCC5)CC4)cc23)cn1 [Compound I-24, 3-(1-methyl-1H-pyrazol-4-yl)-5-((1r,4r)-4-(pyrrolidin-1-yl)cyclohexyl)-1H-pyrrolo[2,3-b]pyridine] | 83 | 23 | 57 |  |  |  | 

More lines, main results first:

Row | IC50 (JNK3) [nM] | SMILES | inhibition in vivo at 20 mg/kg (c-Jun phosphorylation) [%] | inhibition in vivo at 20 mg/kg (TNFα) [%] | Gini coefficient, reference compounds, aromatic C(5) group (panel of 100 kinases) | total white matter area in the lumbar spinal cord (MOG (35-55)-induced EAE; FIG. 10) | neuronal numbers in the ventral horn of the lumbar spinal cords (MOG (35-55)-induced EAE; FIG. 11) | demyelination in the lumbar spinal cord (MOG (35-55)-induced EAE; FIG. 12)
18 | 288 | Cn1cc(-c2c[nH]c3ncc(C4=CCCC5C4C5(C)C)cc23)cn1 (stereo not shown) [Compound I-141, 5-(7,7-dimethylbicyclo[4.1.0]hept-2-en-2-yl)-3-(1-methyl-1H-pyrazol-4-yl)-1H-pyrrolo[2,3-b]pyridine] | 4 | 43 |  |  |  | 
19 | 62 | Cn1cc(-c2c[nH]c3ncc(C4C5CC6CC(C5)CC4C6)cc23)cn1 (stereo not shown) [Compound I-154, 3-(1-Methyl-1H-pyrazol-4-yl)-5-tricyclo[3.3.1.1˜3,7˜]dec-2-yl-1H-pyrrolo[2,3-b]pyridine] | 33 | 60 |  |  |  | 
20 | 45 | Cn1cc(-c2c[nH]c3ncc(C4CC5CCC4C5)cc23)cn1 (stereo not shown) [Compound I-137, 5-(bicyclo[2.2.1]heptan-2-yl)-3-(1-methyl-1H-pyrazol-4-yl)-1H-pyrrolo[2,3-b]pyridine] | 15 | 45 |  |  |  | 
21 | 189 | Cn1cc(-c2c[nH]c3ncc([C@H]4CC[C@H](N(C)C)CC4)cc23)cn1 [Compound I-71, (1r,4r)-N,N-dimethyl-4-(3-(1-methyl-1H-pyrazol-4-yl)-1H-pyrrolo[2,3-b]pyridin-5-yl)cyclohexanamine] | 7 | 86 |  |  |  | 
22 | 129 | CC(C)N1CCN([C@H]2CC[C@@H](c3cnc4[nH]cc(-c5cnn(C)c5)c4c3)CC2)CC1 [Compound I-44, 5-((1s,4s)-4-(4-isopropylpiperazin-1-yl)cyclohexyl)-3-(1-methyl-1H-pyrazol-4-yl)-1H-pyrrolo[2,3-b]pyridine] | 17 | 58 |  |  |  | 
23 | 259 | Cn1cc(-c2c[nH]c3ncc([C@H]4CC[C@@H](N(C)C)CC4)cc23)cn1 [Compound I-72, (1s,4s)-N,N-dimethyl-4-(3-(1-methyl-1H-pyrazol-4-yl)-1H-pyrrolo[2,3-b]pyridin-5-yl)cyclohexanamine] | 15 | 84 |  |  |  | 
24 | 76 | Cn1cc(-c2c[nH]c3ncc(C4=CC5CCC4C5)cc23)cn1 (stereo not shown) [Compound I-136, 5-(bicyclo[2.2.1]hept-2-en-2-yl)-3-(1-methyl-1H-pyrazol-4-yl)-1H-pyrrolo[2,3-b]pyridine] | 42 | 87 |  |  |  | 
25 | 117 | CC(C)N1CCN([C@H]2CC[C@H](c3cnc4[nH]cc(-c5cnn(C)c5)c4c3)CC2)CC1 [Compound I-43, 5-((1r,4r)-4-(4-isopropylpiperazin-1-yl)cyclohexyl)-3-(1-methyl-1H-pyrazol-4-yl)-1H-pyrrolo[2,3-b]pyridine] | 0 | 74 |  |  |  | 
